According to patent US6380134B1, “N-pyridyl herbicide compounds” (Syngenta Crop Protection, Inc., priority 1998, dated 2002):
Several values for one entry are separate records, joined by “and”; a condition that tells them apart may be missing. Equal values may be shown once.

Columns and labels:
[1] = tested on: Sinapis; test: Post-emergence herbicidal action; format: in vivo; set-up: key: 1=complete damage; 9=no effect; Score figures of 1 to 4 (in particular 1 to 3) signify a good to very good herbicidal action; conditions: dose 2000 g a.i./ha; sprayed at 4- to 6-leaf stage; evaluated after approximately 18 days; nine-level key (1=complete damage, 9=no effect)
Protocol: (§1) Monocotyledonous and dicotyledonous test plants are grown in the greenhouse in plastic pots containing standard soil and, in the 4- to 6-leaf stage, sprayed with an aqueous suspension of the test substances of the formula I, prepared from a 25% strength wettable powder (Example F3, b) in accordance with WO 97/34485) or with an emulsion of the test substances of the formula I, prepared from a 25% strength emulsion concentrate (Example F1, c) in accordance with WO 97/34485), corresponding to a dosage of 2 kg/ a.i./ha (500 l of water/ha). The test plants are subsequently grown on in the greenhouse under optimal conditions. After a test period of approximately 18 days, the experiment is evaluated using a nine-level key (1=complete damage, 9=no effect). Score figures of 1 to 4 (in particular 1 to 3) signify a good to very good herbicidal action.
(§2) Test plants: Lolium, Setaria, Sinapis, Solanum, Stellaria, Ipomea.

[2] = tested on: Lolium; test: Post-emergence herbicidal action; format: in vivo; set-up: key: 1=complete damage; 9=no effect; Score figures of 1 to 4 (in particular 1 to 3) signify a good to very good herbicidal action; conditions: dose 2000 g a.i./ha; sprayed at 4- to 6-leaf stage; evaluated after approximately 18 days; nine-level key (1=complete damage, 9=no effect)
Protocol: as §1, §2

[3] = tested on: Solanum; test: Post-emergence herbicidal action; format: in vivo; set-up: key: 1=complete damage; 9=no effect; Score figures of 1 to 4 (in particular 1 to 3) signify a good to very good herbicidal action; conditions: dose 2000 g a.i./ha; sprayed at 4- to 6-leaf stage; evaluated after approximately 18 days; nine-level key (1=complete damage, 9=no effect)
Protocol: as §1, §2

[4] = tested on: Stellaria; test: Post-emergence herbicidal action; format: in vivo; set-up: key: 1=complete damage; 9=no effect; Score figures of 1 to 4 (in particular 1 to 3) signify a good to very good herbicidal action; conditions: dose 2000 g a.i./ha; sprayed at 4- to 6-leaf stage; evaluated after approximately 18 days; nine-level key (1=complete damage, 9=no effect)
Protocol: as §1, §2

[5] = tested on: Setaria; test: Post-emergence herbicidal action; format: in vivo; set-up: key: 1=complete damage; 9=no effect; Score figures of 1 to 4 (in particular 1 to 3) signify a good to very good herbicidal action; conditions: dose 2000 g a.i./ha; sprayed at 4- to 6-leaf stage; evaluated after approximately 18 days; nine-level key (1=complete damage, 9=no effect)
Protocol: as §1, §2

[6] = tested on: Ipomoea; test: Post-emergence herbicidal action; format: in vivo; set-up: key: 1=complete damage; 9=no effect; Score figures of 1 to 4 (in particular 1 to 3) signify a good to very good herbicidal action; conditions: dose 2000 g a.i./ha; sprayed at 4- to 6-leaf stage; evaluated after approximately 18 days; nine-level key (1=complete damage, 9=no effect)
Protocol: as §1, §2

[7] = tested on: Sinapis; test: Herbicidal action before plant emergence (pre-emergence action); format: in vivo; set-up: key: 1=complete damage; 9=no effect; Score figures of 1 to 4 (in particular 1 to 3) signify a good to very good herbicidal action; conditions: 2000 g a.i./ha sprayed immediately after sowing; evaluated after 3 weeks; nine-level key (1=complete damage, 9=no effect)
Description: (§3) Monocotyledonous and dicotyledonous test plants are sown in standard soil in plastic pots. Immediately after sowing, the test substances are sprayed on as aqueous suspensions (prepared from a 25% strength wettable powder (Example F3, b) in accordance with WO 97/34485) or as emulsions (prepared from a 25% strength emulsion concentrate (Example F1, c) in accordance with WO 97/34485), corresponding to a dosage of 2 kg of a.i./ha (500 l of water/ha). The test plants are subsequently grown in the greenhouse under optimal conditions. After a test period of 3 weeks, the experiment is evaluated using a nine-level key (1=complete damage, 9=no effect). Score figures of 1 to 4 (in particular 1 to 3) signify a good to very good herbicidal action.
as §2

[8] = tested on: Lolium; test: as above; format: in vivo; set-up: key: 1=complete damage; 9=no effect; Score figures of 1 to 4 (in particular 1 to 3) signify a good to very good herbicidal action; conditions: 2000 g a.i./ha sprayed immediately after sowing; evaluated after 3 weeks; nine-level key (1=complete damage, 9=no effect)
Description: as §3, §2

[9] = tested on: Solanum; test: as above; format: in vivo; set-up: key: 1=complete damage; 9=no effect; Score figures of 1 to 4 (in particular 1 to 3) signify a good to very good herbicidal action; conditions: 2000 g a.i./ha sprayed immediately after sowing; evaluated after 3 weeks; nine-level key (1=complete damage, 9=no effect)
Description: as §3, §2

[10] = tested on: Stellaria; test: as above; format: in vivo; set-up: key: 1=complete damage; 9=no effect; Score figures of 1 to 4 (in particular 1 to 3) signify a good to very good herbicidal action; conditions: 2000 g a.i./ha sprayed immediately after sowing; evaluated after 3 weeks; nine-level key (1=complete damage, 9=no effect)
Description: as §3, §2

[11] = tested on: Setaria; test: as above; format: in vivo; set-up: key: 1=complete damage; 9=no effect; Score figures of 1 to 4 (in particular 1 to 3) signify a good to very good herbicidal action; conditions: 2000 g a.i./ha sprayed immediately after sowing; evaluated after 3 weeks; nine-level key (1=complete damage, 9=no effect)
Description: as §3, §2

[12] = tested on: Ipomoea; test: as above; format: in vivo; set-up: key: 1=complete damage; 9=no effect; Score figures of 1 to 4 (in particular 1 to 3) signify a good to very good herbicidal action; conditions: 2000 g a.i./ha sprayed immediately after sowing; evaluated after 3 weeks; nine-level key (1=complete damage, 9=no effect)
Description: as §3, §2

Structure (SMILES) | melting point | Post-emergence action, score, Sinapis [1] | Post-emergence action, score, Lolium [2] | Post-emergence action, score, Solanum [3] | Post-emergence action, score, Stellaria [4] | Post-emergence action, score, Setaria [5] | Post-emergence action, score, Ipomoea [6] | Pre-emergence action, score, test plant Sinapis [7] | Pre-emergence action, score, test plant Lolium [8] | Pre-emergence action, score, test plant Solanum [9] | Pre-emergence action, score, test plant Stellaria [10] | Pre-emergence action, score, test plant Setaria [11] | Pre-emergence action, score, test plant Ipomoea [12]
Cn1c(C(F)(F)F)cc(=O)n(-c2nc(O)c(Cl)cc2F)c1=O [1.002, 1-(2-hydroxy-3-chloro-5-fluoropyridine-6-yl)-3-methyl-4-trifluoromethylpyrimidine-2,6-dione] | 200 to 202 °C | 2 | 6 | 1 | 5 | 5 | 1 | 1 | 7 | 1 | 5 | 1 | 1
C#CCOc1nc(-n2c(=O)cc(C(F)(F)F)n(C)c2=O)c(F)cc1Cl [1.022, 1-(2-propargyloxy-3-chloro-5-fluoropyridine-6-yl)-3-methyl-4-trifluoromethylpyrimidine-2,6-dione] | 121 to 122 °C and 119 to 121 °C | 1 | 1 | 1 | 1 | 1 | 1 | 1 | 1 | 1 | 1 | 1 | 1
CCCOc1nc(-n2c(=O)cc(C(F)(F)F)n(C)c2=O)c(F)cc1Cl [1.367] |  | 1 | 1 | 1 | 1 | 1 | 1 | 1 | 1 | 1 | 1 | 1 | 1
Cn1c(C(F)(F)F)cc(=O)n(-c2nc(Cl)c(Cl)cc2F)c1=O [1.396] |  | 1 | 3 | 1 | 3 | 3 | 1 | 1 | 1 | 1 | 1 | 1 | 1
C=CCOC(=O)C(C)(C)Oc1nc(-n2c(=O)cc(C(F)(F)F)n(C)c2=O)c(F)cc1Cl [1.402] |  | 1 | 1 | 1 | 1 | 1 | 1 | 1 | 1 | 1 | 1 | 1 | 4
N#Cc1cc(F)c(N2C(=O)C3CCCCN3C2=O)nc1Cl (stereo not drawn) [Example H8, 2-(3-fluoro-6-chloro-5-cyano-2-pyridyl)tetrahydroimidazo[1,5-a]pyridine-1,3-dione] | 192 to 193 °C |  |  |  |  |  |  |  |  |  |  |  | 
